Data as given in PubChem BioAssay (NCI).
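Growth conditions: 96-well plates. Treatment: test compound, 48 hours, 5 concentrations. Analysis: linear interpolation between bracketing concentrations; unreached endpoints set to highest concentration. Abbreviation: GI50, concentration required for 50% inhibition of growth. The concentration for full growth arrest is given as TGI.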

How the values were obtained:
Experiment in all cases: NCI anticancer screen, dose series, 48 h
[1] = tested on: NCI-H23 lung
[2] = tested on: HCT-116 colon
[3] = tested on: BT-549 breast
[4] = tested on: MDA-MB-435
[5] = tested on: LOX IMVI melanoma
[6] = tested on: SK-OV-3 ovarian
[7] = tested on: UACC-62 melanoma
[8] = tested on: M14 melanoma
[9] = tested on: DU-145 prostate
[10] = tested on: COLO 205 colon

| Structure (SMILES) | TGI [1] | TGI [2] | TGI [3] | TGI [4] | TGI [5] | TGI [6] | TGI [7] | TGI [8] | TGI [9] | TGI [10] | GI50 [8] |
| --- | --- | --- | --- | --- | --- | --- | --- | --- | --- | --- | --- |
| CCOc1cc(C2SCC(=O)N2c2nc3cc4sc(N5C(=O)CSC5c5ccc(O)c(OCC)c5)nc4cc3s2)ccc1O (stereo unspecified) | > 100 µM | > 100 µM | > 85.4 µM | > 100 µM | > 100 µM | > 100 µM | > 100 µM | > 100 µM | > 100 µM | > 100 µM | – |
| CN(C)CCn1c(=O)c2ccc3c4c(nn3CCN(C)C)c3ccccc3n(c1=O)c24 | 1.42 µM | 2.22 µM | 5.5 µM | 1.39 µM | 1.38 µM | 3.43 µM | 1.34 µM | 1.18 µM | 3.54 µM | 0.985 µM | – |
| NCCCCNC1(c2cc3ccccc3s2)CCCCC1 | 28.9 µM | 14.9 µM | 25.4 µM | 3.49 µM | 4.03 µM | 28 µM | 3.79 µM | 3.8 µM | 23.5 µM | 3.5 µM | – |
| CN(c1ccccc1Cl)S(=O)(=O)c1ccccc1[N+](=O)[O-] | > 100 µM | > 100 µM | > 100 µM | > 100 µM | > 100 µM | > 100 µM | > 100 µM | 46.3 µM | > 100 µM | > 100 µM | – |
| O=C1C(N=Nc2ccc(-c3nc4ccccc4[nH]3)cc2)NC(=S)N1c1ccccc1 (stereo unspecified) | > 100 µM | > 100 µM | > 100 µM | > 100 µM | 39.4 µM | > 100 µM | > 100 µM | > 100 µM | > 100 µM | > 100 µM | – |
| CC1(C)[C@@H]2C[C@H]1C(Cc1cccc(C[C@H]3c4cc(-c5ccccn5)ncc4[C@H]4C[C@@H]3C4(C)C)c1)c1cc(-c3ccccn3)ncc12 (stereo partly specified) | > 63.9 µM | > 100 µM | > 93.5 µM | > 58.5 µM | 4.15 µM | > 33.4 µM | > 21 µM | 8.45 µM | > 100 µM | > 58.6 µM | 0.858 µM |
| CC(C)C(C/C=C1\CC(CO)(COC(=O)CC(C(C)C)C(C)C)OC1=O)C(C)C (stereo unspecified) | 29 µM | 27.8 µM | 27.8 µM | 19.7 µM | 27.3 µM | 32.1 µM | 29 µM | 24.6 µM | 22 µM | 9.75 µM | – |
| COc1cc(/C=C/C(=O)OC[C@H](Br)[C@H](OC(C)=O)c2ccc3c(c2)OCO3)cc(OC)c1OC | > 100 µM | > 100 µM | > 100 µM | > 100 µM | > 100 µM | > 100 µM | > 100 µM | > 100 µM | > 100 µM | > 100 µM | – |
| COc1ccc(C2=CN3CCC[C@H]3C=C2c2cc(O)c(OC)c(OC)c2)cc1OC | 0.0278 µM | 0.0108 µM | 0.331 µM | 0.0165 µM | 0.00717 µM | 0.221 µM | 0.0336 µM | 0.0204 µM | 0.254 µM | 0.0256 µM | – |
| CC(C)(C)OC(=O)NCC(=O)N1CCCN(C(=O)CNC(=O)OC(C)(C)C)CC1 | > 100 µM | > 100 µM | > 100 µM | > 100 µM | > 100 µM | > 100 µM | > 100 µM | > 100 µM | > 100 µM | > 100 µM | – |
| Cc1n(CC(=O)c2ccccc2)nc2sc(N)n[n+]12 | > 100 µM | > 100 µM | > 100 µM | > 100 µM | > 100 µM | 74.7 µM | 37.4 µM | > 100 µM | > 100 µM | > 100 µM | – |
| O=C(OCc1ccccc1)N1c2cc([N+](=O)[O-])ccc2C(=O)N2CCC[C@H]2C1O (stereo partly specified) | > 100 µM | > 100 µM | > 100 µM | > 100 µM | > 100 µM | > 100 µM | > 100 µM | > 100 µM | > 100 µM | > 100 µM | – |
| C/C(N=Nc1nc2ccccc2o1)=C1/C=CC=CN1O | > 100 µM | > 100 µM | > 100 µM | > 100 µM | > 100 µM | > 100 µM | > 100 µM | > 100 µM | > 100 µM | > 100 µM | – |
